Source: PubChem BioAssay (NCI)
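Protocol summary: plate cells (96-well), add compound at 5 concentrations, incubate 48 h, interpolate endpoints linearly. TGI is the concentration that stops growth completely.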

Tests used:
Experiment in all cases: growth of human tumour cells (NCI), 48 h
IGROV1 ovarian = tested on: IGROV1 ovarian
UO-31 renal = tested on: UO-31 renal
TK-10 renal = tested on: TK-10 renal
SN12C renal = tested on: SN12C renal
KM12 colon = tested on: KM12 colon
SW-620 colon = tested on: SW-620 colon
UACC-257 melanoma = tested on: UACC-257 melanoma
SNB-78 CNS = tested on: SNB-78 CNS
786-0 renal = tested on: 786-0 renal
U251 CNS = tested on: U251 CNS
OVCAR-5 ovarian = tested on: OVCAR-5 ovarian
LOX IMVI melanoma = tested on: LOX IMVI melanoma
K-562 leukemia = tested on: K-562 leukemia
ACHN renal = tested on: ACHN renal
RPMI-8226 leukemia = tested on: RPMI-8226 leukemia
HCC-2998 colon = tested on: HCC-2998 colon
NCI-H460 lung = tested on: NCI-H460 lung
SK-MEL-5 melanoma = tested on: SK-MEL-5 melanoma
HOP-92 NSCLC = tested on: HOP-92 NSCLC
HT29 colon = tested on: HT29 colon
M14 melanoma = tested on: M14 melanoma
CAKI-1 renal = tested on: CAKI-1 renal
HCT-15 colon = tested on: HCT-15 colon
OVCAR-3 ovarian = tested on: OVCAR-3 ovarian
SNB-19 CNS = tested on: SNB-19 CNS
NCI-H23 lung = tested on: NCI-H23 lung
SF-295 CNS = tested on: SF-295 CNS
UACC-62 melanoma = tested on: UACC-62 melanoma
SF-268 CNS = tested on: SF-268 CNS
SK-MEL-28 melanoma = tested on: SK-MEL-28 melanoma
DMS 114 small cell lung = tested on: DMS 114 small cell lung
OVCAR-4 ovarian = tested on: OVCAR-4 ovarian
SNB-75 CNS = tested on: SNB-75 CNS
EKVX NSCLC = tested on: EKVX NSCLC
HCT-116 colon = tested on: HCT-116 colon
M19-MEL melanoma = tested on: M19-MEL melanoma
CCRF-CEM leukemia = tested on: CCRF-CEM leukemia
A498 renal = tested on: A498 renal
HOP-62 NSCLC = tested on: HOP-62 NSCLC
SK-MEL-2 melanoma = tested on: SK-MEL-2 melanoma
HOP-18 NSCLC = tested on: HOP-18 NSCLC
MALME-3M melanoma = tested on: MALME-3M melanoma
OVCAR-8 ovarian = tested on: OVCAR-8 ovarian
DMS 273 small cell lung = tested on: DMS 273 small cell lung
KM20L2 colon = tested on: KM20L2 colon
SF-539 CNS = tested on: SF-539 CNS
XF 498 CNS = tested on: XF 498 CNS
NCI-H226 lung = tested on: NCI-H226 lung
COLO 205 colon = tested on: COLO 205 colon
A549 NSCLC = tested on: A549 NSCLC
SK-OV-3 ovarian = tested on: SK-OV-3 ovarian
LXFL 529 NSCLC = tested on: LXFL 529 NSCLC
MOLT-4 leukemia = tested on: MOLT-4 leukemia
SR leukemia = tested on: SR leukemia
RXF-631 renal = tested on: RXF-631 renal
RXF 393 renal = tested on: RXF 393 renal
NCI-H522 lung = tested on: NCI-H522 lung
HL-60(TB) leukemia = tested on: HL-60(TB) leukemia
DLD-1 colon = tested on: DLD-1 colon

Measured: TGI

CC(C)(C)C(=O)OCC1CCC(n2cnc3c(=O)[nH]c(N)nc32)O1 (centres undefined)
not listed: LXFL 529 NSCLC | MOLT-4 leukemia | SR leukemia | RXF-631 renal | RXF 393 renal | NCI-H522 lung | HL-60(TB) leukemia | DLD-1 colon
> 100 µM: all other assays above

CCCN(CCCC(NC(C)=O)C(=O)NCc1ccccc1)C(=O)NCCCl (centres undefined)
not listed: SNB-78 CNS | OVCAR-5 ovarian | LOX IMVI melanoma | SK-MEL-5 melanoma | A498 renal | SK-OV-3 ovarian
> 100 µM: all other assays above
